Test results as given in patent US11524966B1 (Valo Early Discovery, Inc., priority 2017, dated 2022).

These compounds were tested against T1, USP25 (USP25-His6, Boston Biochem E-546) (Homo sapiens, UniProt Q9UHP3) (assay: Ubiquitin-Rhodamine 110 Assay for USP25 Activity, Example A-2). Settings: Ubiquitin-Rhodamine 110 assay, Example A-2; read-out: USP25 A-2 IC50 range.
T1 construct: His6; purchased Boston Biochem E-546
T1 sequence (Q9UHP3 1-1055): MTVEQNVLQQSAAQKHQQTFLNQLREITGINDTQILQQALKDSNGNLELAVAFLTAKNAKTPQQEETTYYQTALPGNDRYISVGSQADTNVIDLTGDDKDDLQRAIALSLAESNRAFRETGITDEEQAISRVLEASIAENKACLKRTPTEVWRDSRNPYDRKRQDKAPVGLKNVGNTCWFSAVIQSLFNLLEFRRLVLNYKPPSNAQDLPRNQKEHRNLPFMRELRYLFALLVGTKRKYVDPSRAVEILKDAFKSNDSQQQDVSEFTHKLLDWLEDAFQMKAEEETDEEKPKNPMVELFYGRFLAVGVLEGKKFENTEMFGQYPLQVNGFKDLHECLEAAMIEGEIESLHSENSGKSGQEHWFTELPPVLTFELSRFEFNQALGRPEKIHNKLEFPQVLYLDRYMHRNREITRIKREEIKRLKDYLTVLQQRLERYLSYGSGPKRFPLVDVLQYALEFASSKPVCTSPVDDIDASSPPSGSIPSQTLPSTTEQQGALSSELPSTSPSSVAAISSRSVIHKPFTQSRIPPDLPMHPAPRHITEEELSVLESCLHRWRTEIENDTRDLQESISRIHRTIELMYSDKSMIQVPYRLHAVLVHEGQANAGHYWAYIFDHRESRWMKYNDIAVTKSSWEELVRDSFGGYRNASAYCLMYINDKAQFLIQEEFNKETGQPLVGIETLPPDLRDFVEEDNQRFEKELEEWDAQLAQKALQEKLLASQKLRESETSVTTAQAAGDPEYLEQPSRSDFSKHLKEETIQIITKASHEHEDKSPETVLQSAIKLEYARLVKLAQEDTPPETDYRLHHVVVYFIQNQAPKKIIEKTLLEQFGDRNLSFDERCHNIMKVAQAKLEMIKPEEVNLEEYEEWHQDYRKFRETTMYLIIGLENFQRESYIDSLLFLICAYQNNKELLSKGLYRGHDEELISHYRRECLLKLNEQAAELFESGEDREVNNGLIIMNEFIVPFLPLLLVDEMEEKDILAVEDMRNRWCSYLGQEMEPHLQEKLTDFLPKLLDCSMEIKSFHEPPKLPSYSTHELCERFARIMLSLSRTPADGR
Assay type: biochemical
Summary of the method: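 Steps: compound dilutions (top 25 μM, 3-fold, 10 points) were preincubated 30 min with 75 pM USP25-His6; 25 nM Ub-Rh110 substrate was added under initial-velocity conditions; after 45 min at room temperature, 10 mM citric acid stopped the reaction before fluorescence reading.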

| SMILES | IC50 [µM] |
| --- | --- |
| Cc1ccc2c(N)c(C(=O)N[C@H]3COc4nc(N5CC6CCC(C5)N6)ccc4C3)sc2n1 [Example 173, 3-amino-N-[(3R)-7-{3,8-diazabicyclo[3.2.1]octan-3-yl]-2H,3H,4H-pyrano[2,3-b]pyridin-3-yl]-6-methylthieno[2,3-b]pyridine-2-carboxamide] | 0.2 to 2 |
| COc1nc2sc(C(=O)N[C@H]3CCc4cc(N5C[C@H](OC)[C@@H](N)C5)ccc4C3)c(N)c2cc1F [Example 135, 3-amino-N-[(2S)-6-[(3S,4S)-3-amino-4-methoxypyrrolidin-1-yl]-1,2,3,4-tetrahydronaphthalen-2-yl]-5-fluoro-6-methoxythieno[2,3-b]pyridine-2-carboxamide] | > 2 |
| CO[C@@H]1CN(c2ccc3c(c2)OC[C@H](NC(=O)c2sc4nc(C)sc4c2N)C3)C[C@@H]1N [Example 149, 6-amino-N-[(3R)-7-[(3S,4R)-3-amino-4-methoxypyrrolidin-1-yl]-3,4-dihydro-2H-1-benzopyran-3-yl]-2-methylthieno[2,3-d][1,3]thiazole-5-carboxamide] | 0.2 to 2 |
| Cc1nc2sc(C(=O)N[C@H]3COc4c(F)c(N5CC6CCC(C5)N6)cc(F)c4C3)c(N)c2s1 [Example 98, 6-amino-N-[(3R)-7-{3,8-diazabicyclo[3.2.1]octan-3-yl}-5,8-difluoro-3,4-dihydro-2H-1-benzopyran-3-yl]-2-methylthieno[2,3-d][1, 3]thiazole-5-carboxamide] | 0.05 to 0.2 |
| Cc1ccc2c(N)c(C(=O)N[C@H]3COc4cc(C5CC6COCC(C5)N6)ccc4C3)sc2n1 (stereo partly drawn) [Example 125, 3-amino-6-methyl-N-[(3R)-7-{3-oxa-9-azabicyclo[3.3.1]nonan-7-yl}-3,4-dihydro-2H-1-benzopyran-3-yl]thieno[2,3-b]pyridine-2-carboxamide] | 0.05 to 0.2 |
| Cc1ccc2c(N)c(C(=O)N[C@H]3CCc4c(ccc(N5CC6CNCC(C5)O6)c4F)C3)sc2n1 [Example 99, 3-amino-N-[(2S)-5-fluoro-6-{9-oxa-3,7-diazabicyclo[3.3.1]nonan-3-yl}-1,2,3,4-tetrahydronaphthalen-2-yl]-6-methylthieno[2,3-b]pyridine-2-carboxamide] | 0.001 to 0.05 |
| COC[C@@H]1CN(c2ccc3c(c2)OC[C@H](NC(=O)c2sc4nc(C)ccc4c2N)C3)C[C@@H]1N [Example 161, 3-amino-N-[(3R)-7-[(3R,4R)-3-amino-4(methoxymethyl)pyrrolidin-1-yl]-3,4-dihydro-2H-1-benzopyran-3-yl]-6-methylthieno[2,3-b]pyridine-2-carboxamide] | 0.2 to 2 |
| Cc1ccc2c(N)c(C(=O)N[C@H]3COc4c(ccc(N5CC6CNCC(C5)O6)c4F)C3)sc2n1 [Example 105, 3-amino-N-[(3R)-8-fluoro-7-{9-oxa-3,7-diazabicyclo[3.3.1]nonan-3-yl}-3,4-dihydro-2H-1-benzopyran-3-yl]-6-methylthieno[2,3-b]pyridine-2-carboxamide] | 0.001 to 0.05 |
| Cc1ccc2c(N)c(C(=O)N[C@H]3COc4cc(N5CC[C@@H]6CNC[C@@H]65)ccc4C3)sc2n1 [Example 165, N-[(3R)-7-[(3aR,6aR)-octahydropyrrolo[2,3-c]pyrrol-1-yl]-3,4-dihydro-2H-1-benzopyran-3-yl]-3-amino-6-methylthieno[2,3-b]pyridine-2-carboxamide] | 0.05 to 0.2 |
| Cc1ccc2c(N)c(C(=O)N[C@H]3COc4nc(N5CC6CNCC(C5)C6(F)F)ccc4C3)sc2n1 [Example 113, 3-amino-N-[(3R)-7-{9 9-difluoro-3,7-diazabicyclo[3.3.1]nonan-3-yl}-2H b,3H,4H-pyrano[2,3-b]pyridin-3-yl]-6-methylthieno[2,3-b]pyridine-2-carboxamide] | 0.2 to 2 |
| Cc1ccc2c(N)c(C(=O)N[C@H]3CCc4c(ccc(N5CC6CNCC(C5)O6)c4C#N)C3)sc2n1 [Example 102, 3-amino-N-[(2S)-5-cyano-6-{9-oxa-3,7-diazabicyclo[3.3.1]nonan-3-yl}-1,2,3,4-tetrahydronaphthalen-2-yl]-6-methylthieno[2,3-b]pyridine-2-carboxamide] | 0.05 to 0.2 |
| Cc1ccc2c(N)c(C(=O)N[C@H]3COc4c(F)c(N5CC6CCC(C5)N6)cc(F)c4C3)oc2n1 [Example 172, 3-amino-N-[(3R)-7-{3,8-diazabicyclo[3.2.1]octan-3-yl}-5,8-difluoro-3,4-dihydro-2H-1-benzopyran-3-yl]-6-methylfuro[2,3-b]pyridine-2-carboxamide] | > 2 |
| COC[C@H]1CN(c2ccc3c(c2)OC[C@H](NC(=O)c2sc4nc(C)ccc4c2N)C3)C[C@H]1N [Example 162, 3-amino-N-[(3R)-7-[(3S,4S)-3-amino-4-(methoxymethyl)pyrrolidin-1-yl]-3,4-dihydro-2H-1-benzopyran-3-yl]-6-methylthieno[2,3-b]pyridine-2-carboxamide] | 0.05 to 0.2 |
| CO[C@H]1CN(c2cc(F)c3c(c2C#N)OC[C@H](NC(=O)c2sc4nc(C)cnc4c2N)C3)C[C@@H]1N [Example 174, 7-amino-N-[(3R)-7-[(3S,4S)-3-amino-4-methoxypyrrolidin-1-yl]-8-cyano-5-fluoro-3,4-dihydro-2H-1-benzopyran-3-yl]-3-methylthieno[2,3-b]pyrazine-6-carboxamide] | > 2 |
| Cc1cnc2c(N)c(C(=O)N[C@H]3COc4cc(N5CC6CCC(C5)N6)c(F)c(F)c4C3)sc2n1 [Example 97, 7-amino-N-[(3R)-7-{3,8-diazabicyclo[3.2.1]octan-3-yl]-5,6-difluoro-3,4-dihydro-2H-1-benzopyran-3-yl]-3-methylthieno[2,3-b]pyrazine-6-carboxamide] | 0.001 to 0.05 |
| CCn1ccc2cc(C(=O)N[C@H]3CCc4cc(N5C[C@H](OC)[C@@H](N)C5)ccc4C3)cnc21 [Example 132, N-[(2S)-6-[(3S,4S)-3-amino-4-methoxypyrrolidin-1-yl]-1,2,3,4-tetrahydronaphthalen-2-yl]-1-ethyl-1H-pyrrolo[2,3-b]pyridine-5-carboxamide] | > 2 |
| CO[C@H]1CN(c2ccc3c(c2)OC[C@H](NC(=O)c2sc4nc(C)cnc4c2N)C3)C[C@H]1N [Example 148, 7-amino-N-[(3R)-7-[(3R,4S)-3-amino-4-methoxypyrrolidin-1-yl]-3,4-dihydro-2H-1-benzopyran-3-yl]-3-methylthieno[2,3-b]pyrazine-6-carboxamide] | 0.2 to 2 |
| CO[C@H]1CN(c2cc3c(cc2C#N)C[C@@H](NC(=O)c2sc4nc(C)cnc4c2N)CO3)C[C@@H]1N [Example 176, 7-amino-N-[(3R)-7-[(3S,4S)-3-amino-4-methoxypyrrolidin-1-yl]-6-cyano-3,4-dihydro-2H-1-benzopyran-3-yl]-3-methylthieno[2,3-b]pyrazine-6-carboxamide] | 0.05 to 0.2 |
| CCO[C@@H]1CN(c2ccc3c(c2)OC[C@H](NC(=O)c2sc4nc(C)ccc4c2N)C3)C[C@@H]1N [Example 151, 3-amino-N-[(3R)-7-[(3S,4R)-3-amino-4-ethoxypyrrolidin-1-yl]-3,4-dihydro-2H-1-benzopyran-3-yl]-6-methylthieno[2,3-b]pyridine-2-carboxamide] | 0.2 to 2 |
| Cc1ccc2c(N)c(C(=O)N[C@H]3COc4cc(N5CC6CCC(C5)N6)c(F)cc4C3)sc2n1 [Example 104, 3-amino-N-[(3R)-7-{3,8-diazabicyclo[3.2.1]octan-3-yl]-6-fluoro-3,4-dihydro-2H-1-benzopyran-3-yl]-6-methylthieno[2,3-b]pyridine-2-carboxamide] | 0.001 to 0.05 |
| CO[C@H]1CN(c2ccc3c(c2)OC[C@H](NC(=O)c2sc4nc(C)cnc4c2N)C3)C[C@@H]1N [Example 117, 7-amino-N-[(3R)-7-[(3S,4S)-3-amino-4-methoxypyrrolidin-1-yl]-3,4-dihydro-2H-1-benzopyran-3-yl]-3-methylthieno[2,3-b]pyrazine-6-carboxamide] | 0.2 to 2 |
| Cc1ccc2c(N)c(C(=O)N[C@H]3COc4cc(N5C[C@H](OC6CCC6)[C@@H](N)C5)ccc4C3)sc2n1 [Example 141, 3-amino-N-[(3R)-7-[(3S,4S)-3-amino-4-cyclobutoxypyrrolidin-1-yl]-3,4-dihydro-2H-1-benzopyran-3-yl]-6-methylthieno[2,3-b]pyridine-2-carboxamide] | 0.05 to 0.2 |
| CO[C@H]1CN(c2cc(F)c3c(c2)CC[C@H](NC(=O)c2sc4nc(C)ccc4c2N)C3)C[C@@H]1N [Example 136, 3-amino-N-[(2S)-6-[(3S,4S)-3-amino-4-methoxypyrrolidin-1-yl]-8-fluoro-1,2,3,4-tetrahydronaphthalen-2-yl]-6-methylthieno[2,3-b]pyridine-2-carboxamide] | > 2 |
